Assay results from the kinase profiling compilation of Christmann-Franck et al. (2016).

How the values were obtained:
Test in all cases: KINOMEscan competition binding
Settings in all cases: compound 10.0 µM
ERBB4 (human) = ERBB4 (human) (UniProt Q15303)
CAMK2B (human) = CAMK2B (human) (UniProt Q13554)
LIMK2 (human) = LIMK2 (human) (UniProt P53671)
ULK2 (human) = ULK2 (human) (UniProt Q8IYT8)
CDC2L2 (human) = CDC2L2 (human) (UniProt Q9UQ88)
TLK2 (human) = TLK2 (human) (UniProt Q86UE8)
FGFR3 (human) = FGFR3 (human) (UniProt P22607)
SRMS (human) = SRMS (human) (UniProt Q9H3Y6)
SRMS (human), sequence (Q9H3Y6 whole entry, looked up): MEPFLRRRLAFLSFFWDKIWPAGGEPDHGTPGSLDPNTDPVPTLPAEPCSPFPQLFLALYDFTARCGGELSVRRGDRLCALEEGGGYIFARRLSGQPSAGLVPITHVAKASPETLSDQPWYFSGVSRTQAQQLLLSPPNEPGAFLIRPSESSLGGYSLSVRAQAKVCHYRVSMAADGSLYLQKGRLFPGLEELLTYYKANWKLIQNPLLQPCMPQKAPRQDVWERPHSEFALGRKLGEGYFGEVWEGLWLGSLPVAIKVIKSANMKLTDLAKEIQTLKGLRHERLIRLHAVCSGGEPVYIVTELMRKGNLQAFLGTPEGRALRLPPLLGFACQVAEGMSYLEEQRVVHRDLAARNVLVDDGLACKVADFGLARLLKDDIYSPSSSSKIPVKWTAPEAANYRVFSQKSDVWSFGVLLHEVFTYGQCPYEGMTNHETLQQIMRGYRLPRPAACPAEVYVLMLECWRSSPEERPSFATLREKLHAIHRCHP

FRK (human) = FRK (human) (UniProt P42685)
FRK (human), sequence (P42685 whole entry, looked up): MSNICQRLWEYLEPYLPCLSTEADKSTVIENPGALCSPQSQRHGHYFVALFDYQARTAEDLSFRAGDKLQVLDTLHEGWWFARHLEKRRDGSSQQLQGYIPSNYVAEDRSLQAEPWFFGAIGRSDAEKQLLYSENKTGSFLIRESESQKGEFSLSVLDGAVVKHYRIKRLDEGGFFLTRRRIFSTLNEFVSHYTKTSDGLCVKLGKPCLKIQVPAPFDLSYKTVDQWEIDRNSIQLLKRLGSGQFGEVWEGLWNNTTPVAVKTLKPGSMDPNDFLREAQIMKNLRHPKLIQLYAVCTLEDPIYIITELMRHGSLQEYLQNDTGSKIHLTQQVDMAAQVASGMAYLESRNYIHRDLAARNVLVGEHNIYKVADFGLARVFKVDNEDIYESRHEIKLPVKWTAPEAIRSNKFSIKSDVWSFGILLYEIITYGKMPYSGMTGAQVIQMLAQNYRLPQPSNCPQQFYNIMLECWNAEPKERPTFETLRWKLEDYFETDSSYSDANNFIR

CLK2 (human) = CLK2 (human) (UniProt P49760)
CDK3 (human) = CDK3 (human) (UniProt Q00526)
RPS6KA6 KD1 (human) = RPS6KA6 KD1 (human) (UniProt Q9UK32)
PKN2 (human) = PKN2 (human) (UniProt Q16513)
PRKD1 (human) = PRKD1 (human) (UniProt Q15139)
PIK3CD (human) = PIK3CD (human) (UniProt O00329)
ULK3 (human) = ULK3 (human) (UniProt Q6PHR2)
AKT2 (human) = AKT2 (human) (UniProt P31751)
MAPK1 (human) = MAPK1 (human) (UniProt P28482)
MAPK1 (human), sequence (P28482 whole entry, looked up): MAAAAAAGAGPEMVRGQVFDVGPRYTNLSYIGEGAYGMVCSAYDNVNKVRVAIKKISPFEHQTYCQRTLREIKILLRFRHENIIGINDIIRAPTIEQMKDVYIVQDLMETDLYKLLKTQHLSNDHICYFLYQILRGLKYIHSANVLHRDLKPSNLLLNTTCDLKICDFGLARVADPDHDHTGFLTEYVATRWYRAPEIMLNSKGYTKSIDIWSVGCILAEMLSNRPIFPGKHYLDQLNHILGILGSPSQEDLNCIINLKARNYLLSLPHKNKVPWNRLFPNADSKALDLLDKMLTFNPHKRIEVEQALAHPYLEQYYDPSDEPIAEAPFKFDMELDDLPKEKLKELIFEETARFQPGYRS

ERBB2 (human) = ERBB2 (human) (UniProt P04626)
PHKG1 (human) = PHKG1 (human) (UniProt Q16816)
MAP3K5 (human) = MAP3K5 (human) (UniProt Q99683)
HIPK1 (human) = HIPK1 (human) (UniProt Q86Z02)
HIPK1 (human), sequence (Q86Z02 whole entry, looked up): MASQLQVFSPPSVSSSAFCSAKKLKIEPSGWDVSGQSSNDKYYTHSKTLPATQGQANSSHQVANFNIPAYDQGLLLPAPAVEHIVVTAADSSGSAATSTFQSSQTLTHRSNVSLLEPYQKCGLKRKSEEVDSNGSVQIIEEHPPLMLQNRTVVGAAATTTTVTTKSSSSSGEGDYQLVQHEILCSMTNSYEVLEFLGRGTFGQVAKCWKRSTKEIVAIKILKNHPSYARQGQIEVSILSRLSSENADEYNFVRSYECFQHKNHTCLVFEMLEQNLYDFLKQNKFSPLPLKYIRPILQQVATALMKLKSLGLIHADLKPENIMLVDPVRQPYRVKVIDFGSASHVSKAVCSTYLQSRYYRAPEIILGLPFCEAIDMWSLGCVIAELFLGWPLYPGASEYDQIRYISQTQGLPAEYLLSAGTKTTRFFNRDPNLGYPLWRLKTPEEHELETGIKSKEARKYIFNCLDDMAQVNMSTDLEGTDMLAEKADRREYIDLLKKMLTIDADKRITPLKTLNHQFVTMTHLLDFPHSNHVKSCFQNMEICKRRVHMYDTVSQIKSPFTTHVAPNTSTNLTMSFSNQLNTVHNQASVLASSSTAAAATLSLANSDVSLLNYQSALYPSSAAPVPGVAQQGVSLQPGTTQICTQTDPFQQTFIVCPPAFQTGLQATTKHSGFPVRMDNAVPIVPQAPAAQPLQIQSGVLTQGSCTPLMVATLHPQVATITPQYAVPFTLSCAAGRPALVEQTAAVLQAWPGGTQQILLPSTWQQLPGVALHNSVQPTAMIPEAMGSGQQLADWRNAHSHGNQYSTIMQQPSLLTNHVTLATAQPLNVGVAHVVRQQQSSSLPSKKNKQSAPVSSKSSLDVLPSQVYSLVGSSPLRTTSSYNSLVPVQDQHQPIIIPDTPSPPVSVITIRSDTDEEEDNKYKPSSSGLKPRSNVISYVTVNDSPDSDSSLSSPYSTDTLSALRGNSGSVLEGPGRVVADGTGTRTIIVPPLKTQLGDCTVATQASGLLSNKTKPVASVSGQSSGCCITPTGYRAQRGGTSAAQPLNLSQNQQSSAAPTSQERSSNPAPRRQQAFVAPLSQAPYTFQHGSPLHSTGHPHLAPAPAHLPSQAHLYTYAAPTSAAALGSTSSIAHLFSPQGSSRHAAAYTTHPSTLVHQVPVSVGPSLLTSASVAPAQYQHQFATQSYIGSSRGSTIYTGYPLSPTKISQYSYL

LATS1 (human) = LATS1 (human) (UniProt O95835)
RET (human) = RET (human) (UniProt P07949)
DDR2 (human) = DDR2 (human) (UniProt Q16832)
DDR2 (human), sequence (Q16832 whole entry, looked up): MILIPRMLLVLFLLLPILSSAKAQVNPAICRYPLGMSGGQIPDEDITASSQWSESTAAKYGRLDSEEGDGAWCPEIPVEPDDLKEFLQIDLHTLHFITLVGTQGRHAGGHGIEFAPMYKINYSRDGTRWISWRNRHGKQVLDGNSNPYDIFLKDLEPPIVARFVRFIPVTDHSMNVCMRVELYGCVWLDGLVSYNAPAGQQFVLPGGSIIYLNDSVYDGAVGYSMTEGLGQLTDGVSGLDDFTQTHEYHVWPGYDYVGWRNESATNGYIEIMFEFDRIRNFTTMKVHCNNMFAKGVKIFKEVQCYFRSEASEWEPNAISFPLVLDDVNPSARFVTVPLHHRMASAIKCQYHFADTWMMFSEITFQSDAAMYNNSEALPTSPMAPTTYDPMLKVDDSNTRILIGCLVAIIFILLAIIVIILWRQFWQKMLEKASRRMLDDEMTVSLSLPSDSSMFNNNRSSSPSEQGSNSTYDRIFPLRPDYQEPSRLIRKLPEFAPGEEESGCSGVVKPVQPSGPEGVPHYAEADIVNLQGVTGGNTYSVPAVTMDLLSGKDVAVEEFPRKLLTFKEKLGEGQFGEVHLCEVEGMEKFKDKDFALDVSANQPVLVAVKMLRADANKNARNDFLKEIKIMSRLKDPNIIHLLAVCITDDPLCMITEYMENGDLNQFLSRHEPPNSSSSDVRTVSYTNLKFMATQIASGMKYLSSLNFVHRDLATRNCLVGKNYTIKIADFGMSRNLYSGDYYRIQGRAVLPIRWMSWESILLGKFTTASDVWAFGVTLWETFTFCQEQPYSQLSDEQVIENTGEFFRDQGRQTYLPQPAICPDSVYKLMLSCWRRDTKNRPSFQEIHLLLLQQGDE

MST4 (human) = MST4 (human) (UniProt Q9P289)
MAPK15 (human) = MAPK15 (human) (UniProt Q8TD08)
MAPK15 (human), sequence (Q8TD08 whole entry, looked up): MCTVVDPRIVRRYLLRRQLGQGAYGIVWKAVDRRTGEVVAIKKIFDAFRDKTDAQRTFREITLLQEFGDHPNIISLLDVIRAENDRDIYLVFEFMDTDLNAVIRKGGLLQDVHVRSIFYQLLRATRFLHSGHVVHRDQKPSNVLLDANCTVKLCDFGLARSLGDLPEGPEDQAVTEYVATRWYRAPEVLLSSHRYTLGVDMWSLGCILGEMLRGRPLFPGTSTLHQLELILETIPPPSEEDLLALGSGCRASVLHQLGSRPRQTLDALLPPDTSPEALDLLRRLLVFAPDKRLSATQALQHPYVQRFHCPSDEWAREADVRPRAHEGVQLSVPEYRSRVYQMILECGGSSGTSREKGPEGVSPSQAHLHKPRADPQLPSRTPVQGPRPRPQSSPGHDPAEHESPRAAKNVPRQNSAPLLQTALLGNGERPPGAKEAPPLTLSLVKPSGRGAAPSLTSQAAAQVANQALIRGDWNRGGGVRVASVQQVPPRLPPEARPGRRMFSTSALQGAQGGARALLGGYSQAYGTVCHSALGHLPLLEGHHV

DYRK1B (human) = DYRK1B (human) (UniProt Q9Y463)
AURKB (human) = AURKB (human) (UniProt Q96GD4)
RPS6KA6 KD2 (human) = RPS6KA6 KD2 (human) (UniProt Q9UK32)
FGR (human) = FGR (human) (UniProt P09769)
ACVR2A (human) = ACVR2A (human) (UniProt P27037)
TGFBR1 (human) = TGFBR1 (human) (UniProt P36897)
SRPK3 (human) = SRPK3 (human) (UniProt Q9UPE1)
ADCK3 (human) = ADCK3 (human) (UniProt Q8NI60)
ADCK3 (human), sequence (Q8NI60 whole entry, looked up): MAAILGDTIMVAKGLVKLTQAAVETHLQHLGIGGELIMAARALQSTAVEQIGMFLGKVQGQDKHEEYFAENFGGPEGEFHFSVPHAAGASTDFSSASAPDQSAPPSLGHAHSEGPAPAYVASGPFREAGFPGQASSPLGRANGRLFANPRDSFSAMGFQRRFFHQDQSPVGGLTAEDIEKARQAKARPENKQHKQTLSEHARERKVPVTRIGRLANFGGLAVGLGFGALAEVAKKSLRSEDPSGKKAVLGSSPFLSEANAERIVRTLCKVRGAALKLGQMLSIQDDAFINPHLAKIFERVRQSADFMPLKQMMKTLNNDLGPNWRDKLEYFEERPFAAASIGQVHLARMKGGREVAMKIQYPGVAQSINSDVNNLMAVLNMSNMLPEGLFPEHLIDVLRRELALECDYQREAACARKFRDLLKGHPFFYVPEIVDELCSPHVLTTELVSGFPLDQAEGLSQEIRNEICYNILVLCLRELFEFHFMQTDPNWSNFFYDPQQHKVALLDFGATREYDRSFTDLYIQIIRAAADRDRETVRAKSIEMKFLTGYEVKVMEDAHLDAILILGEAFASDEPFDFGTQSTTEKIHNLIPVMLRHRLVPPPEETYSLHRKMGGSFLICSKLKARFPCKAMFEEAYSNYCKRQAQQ

PRKG1 (human) = PRKG1 (human) (UniProt Q13976)
MAPK14 (human) = MAPK14 (human) (UniProt Q16539)
MAPK14 (human), sequence (Q16539 whole entry, looked up): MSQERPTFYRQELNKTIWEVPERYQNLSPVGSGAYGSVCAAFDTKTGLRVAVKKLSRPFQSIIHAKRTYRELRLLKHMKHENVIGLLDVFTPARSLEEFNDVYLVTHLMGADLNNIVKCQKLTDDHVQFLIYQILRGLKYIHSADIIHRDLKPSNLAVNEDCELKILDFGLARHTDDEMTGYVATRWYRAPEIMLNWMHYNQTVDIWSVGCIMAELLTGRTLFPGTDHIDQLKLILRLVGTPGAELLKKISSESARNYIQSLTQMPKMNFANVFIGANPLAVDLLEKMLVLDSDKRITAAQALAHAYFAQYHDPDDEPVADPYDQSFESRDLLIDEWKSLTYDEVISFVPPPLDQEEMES

CDC42BPB (human) = CDC42BPB (human) (UniProt Q9Y5S2)
MAPKAPK5 (human) = MAPKAPK5 (human) (UniProt Q8IW41)
DAPK2 (human) = DAPK2 (human) (UniProt Q9UIK4)

Compound | kinase still bound, per cent of control (ERBB4 (human)) | kinase still bound, per cent of control (CAMK2B (human)) | kinase still bound, per cent of control (LIMK2 (human)) | kinase still bound, per cent of control (ULK2 (human)) | kinase still bound, per cent of control (CDC2L2 (human)) | kinase still bound, per cent of control (TLK2 (human)) | kinase still bound, per cent of control (FGFR3 (human)) | kinase still bound, per cent of control (SRMS (human)) | kinase still bound, per cent of control (FRK (human)) | kinase still bound, per cent of control (CLK2 (human)) | kinase still bound, per cent of control (CDK3 (human)) | kinase still bound, per cent of control (RPS6KA6 KD1 (human)) | kinase still bound, per cent of control (PKN2 (human)) | kinase still bound, per cent of control (PRKD1 (human)) | kinase still bound, per cent of control (PIK3CD (human)) | kinase still bound, per cent of control (ULK3 (human)) | kinase still bound, per cent of control (AKT2 (human)) | kinase still bound, per cent of control (MAPK1 (human)) | kinase still bound, per cent of control (ERBB2 (human)) | kinase still bound, per cent of control (PHKG1 (human)) | also measured
CCN1CCN(Cc2ccc(Nc3ncc4c(n3)N(C)c3ccccc3C(=O)N4C)cc2C(F)(F)F)CC1 | 95% | 58% | 85% | 0% | 97% | 89% | 43% | 54% | 19% | 39% | 100% | 19% | 55% | 17% | 0% | 7.4% | 100% | 77% | 100% | 100% | kinase still bound, per cent of control (MAP3K5 (human)): 100%; kinase still bound, per cent of control (HIPK1 (human)): 78%; kinase still bound, per cent of control (LATS1 (human)): 100%; kinase still bound, per cent of control (RET (human)): 2.4%; kinase still bound, per cent of control (DDR2 (human)): 50%; kinase still bound, per cent of control (MST4 (human)): 5.6%; kinase still bound, per cent of control (MAPK15 (human)): 100%; kinase still bound, per cent of control (DYRK1B (human)): 68%; kinase still bound, per cent of control (AURKB (human)): 0.95%; kinase still bound, per cent of control (RPS6KA6 KD2 (human)): 16%; kinase still bound, per cent of control (FGR (human)): 26%; kinase still bound, per cent of control (ACVR2A (human)): 56%; kinase still bound, per cent of control (TGFBR1 (human)): 81%; kinase still bound, per cent of control (SRPK3 (human)): 57%; kinase still bound, per cent of control (ADCK3 (human)): 78%; kinase still bound, per cent of control (PRKG1 (human)): 100%; kinase still bound, per cent of control (MAPK14 (human)): 100%; kinase still bound, per cent of control (CDC42BPB (human)): 99%; kinase still bound, per cent of control (MAPKAPK5 (human)): 100%; kinase still bound, per cent of control (DAPK2 (human)): 70%
C=CC(=O)Nc1cccc(Nc2nc(N[C@H]3CC[C@H](N(C)C)CC3)nc3c2ncn3C(C)C)c1 | 76% | 80% | 100% | 2% | 98% | 100% | 68% | 88% | 53% | 0.5% | 95% | 8.2% | 61% | 100% | 92% | 52% | 84% | 93% | 100% | 57% | kinase still bound, per cent of control (MAP3K5 (human)): 100%; kinase still bound, per cent of control (HIPK1 (human)): 25%; kinase still bound, per cent of control (LATS1 (human)): 100%; kinase still bound, per cent of control (RET (human)): 73%; kinase still bound, per cent of control (DDR2 (human)): 100%; kinase still bound, per cent of control (MST4 (human)): 16%; kinase still bound, per cent of control (MAPK15 (human)): 75%; kinase still bound, per cent of control (DYRK1B (human)): 49%; kinase still bound, per cent of control (AURKB (human)): 73%; kinase still bound, per cent of control (RPS6KA6 KD2 (human)): 100%; kinase still bound, per cent of control (FGR (human)): 14%; kinase still bound, per cent of control (ACVR2A (human)): 97%; kinase still bound, per cent of control (TGFBR1 (human)): 100%; kinase still bound, per cent of control (SRPK3 (human)): 47%; kinase still bound, per cent of control (ADCK3 (human)): 87%; kinase still bound, per cent of control (PRKG1 (human)): 100%; kinase still bound, per cent of control (MAPK14 (human)): 95%; kinase still bound, per cent of control (CDC42BPB (human)): 76%; kinase still bound, per cent of control (MAPKAPK5 (human)): 87%; kinase still bound, per cent of control (DAPK2 (human)): 37%
